Read-outs that look alike come from different tables or passages of the source.
Assays:
EBC-1 cells [1] = assay: Colony formation; assay type: cell-based, human; details: EBC-1, 14 days treatment, especially at 20 μM
Description: (§1) To investigate the effect of LAH-1 on colony formation ability, the EBC-1 cells which harbouring Met amplification were treated with different concentrations of LAH-1. […] Considering the important role of HGF/c-Met signalling in promoting cancer cell migration and invasion, the NCI-H441 cells with elevated expression level of c-Met was used. After treatment with HGF in the presence of LAH-1, the migratory and invasive abilities of NCI-H441 cells were determined.
EBC-1 cells were trypsinized and approximately 2000 cells were plated on 6-well plates. 14 days later, visible colonies were fixed and stained with 0.1% crystal violet. The number of colonies was quantified by Image J software (Developed by National Institutes of Health). A group of >50 cells was defined as one colony. All experiments were performed in duplicate wells.

[2] = system: phosphorylation of c-Met, Akt, and Erk 1/2 in EBC-1 cells; assay: Western blot of c-Met signalling; assay type: cell-based, human; details: 2 h treatment
Description: Based on the sensitivity of LAH-1 against six cancer cell lines, we then conducted western blot assays to confirm the effect of LAH-1 on c-Met inhibition in cancer cells, and human non-small lung cancer (NSCLC) cell EBC-1 which harbours amplified Met gene was used.
Briefly, EBC-1 cells were seeded at a density of 1.5 × 10^6 cells/well and treated with Compound LAH-1 at the indicated concentration for 2 h. DMSO-treated cells were used as control groups. The whole cellular protein was extracted and measured by BCA protein assay. Total proteins were fractionated on SDS-PAGE and then transferred onto PVDF membranes (Millipore). Membranes were blocked with 5% BSA at room temperature and then incubated overnight at 4 °C with specific primary antibodies (Phospho-Met (CST, #3077S), Met (D1C2) (CST, #8198S), Phospho-Akt (CST, #4060S), Akt (pan) (C67E7) (CST, #4691S), Phospho-p44/42 MAPK (Erk1/2) (CST, #4370S), p44/42 MAPK (Erk1/2) (137F5) (CST, #4695S)) followed by the secondary antibody. Finally, the detection was performed by the Fully Automated Chemiluminescence/Fluorescence Image Analysis Systems (Tanon 5200).

HT-1080 cells = assay: Cell proliferation assay (CCK-8); assay type: cell-based, human
Description: (§2) Considering increased c-Met activity has been implicated in multiple tumour cells, we evaluated the half maximal inhibitory concentration (IC50) of LAH-1 in several cancer cell lines which harbour different levels of Met genetic alteration, these include human lung squamous cell carcinoma EBC-1, human gastric cancer line Hs746T, human oesophageal adenocarcinoma cell line OE33, human small-cell lung cancer SBC-5, and human glioblastoma cell U87MG.
(§3) EBC-1, Hs746T, OE33, SBC-5, U87MG, HT-1080 cell lines were purchased from ATCC, RIKEN, ECACC or JCRB. The antiproliferative activities of LAH-1 against these cells were assessed by CCK-8 assay according to the manufacturer’s protocol. Briefly, cells were seeded in 96-well plate at different density. 3-fold serial diluted compound or DMSO control was added to each well. After 72 h incubation, CCK-8 was added and incubated for another 2 h. The optical density of each well was read by microplate reader (Biotech, Shanghai, China). IC50 values were calculated by GraphPad Prism.

NCI-H441 cells [3] = assay: HGF-induced cell invasion (transwell); assay type: cell-based; details: HGF 100 ng/mL, 28 h
Description: as §1
(§4) NCI-H441 cells in log growth phase were suspended in serum-free medium at a density of 150,000 cells per well and then seeded in 24-well transwell plates ([8] μm; Corning). Designated control or LAH-1 treated cells were added to each migration or invasion chamber and incubated for 28 h. Additionally, HGF (100 ng/mL) was added to the lower well of each companion plate to attract cells from migration or invasion chamber plate inserts at the top of the companion plate. The invaded or migrated cells to the lower wells were then fixed and stained with crystal violet. Images were taken by Olympus BX51 microscope.

[4] = Liver microsomal stability assay; assay type: in vitro ADME, human; details: HLM
Description: (§5) Having characterised LAH-1 as a potent c-Met inhibitor, the ADME properties and PK parameters were further determined. […] Additionally, Egg-PAMPA (Parallel artificial membrane permeability assay) confirmed LAH-1 as membrane permeable, with permeability rates (Pe) of 3.4 nm/s. […] Next, LAH-1 was further progressed into in vivo PK studies.
(§6) The liver microsomal stability assay, PAMPA, and CYP 450 Inhibition Assay were conducted according to the previous reported procedure.

EBC-1 cells [5] = assay: Annexin V-FITC/PI dual staining apoptosis assay; assay type: cell-based, human; details: EBC-1, 24 h; untreated group 1.42%
Description: To determine whether the observed cell death was due to physiological apoptosis, Annexin V FITC/PI dual staining assay was conducted. EBC-1cells were treated with LAH-1 at different concentrations for 24 h to examine the effect on apoptosis.
The effect of LAH-1 on EBC-1 cells apoptosis was determined by Annexin V-FITC/PI apoptosis detection kit (BD Bioscience, Cat. No. 556547). Briefly, 300,000 EBC-1 cells were seeded in 6-well plate. After treatment with or without LAH-1 for 24 h, cells were collected, stained by FITC in binding buffer preventing from light, and then labelled by PI (absin, Cat. No. abs50005-50T). The apoptotic cells were analysed by flow cytometer Cytoflex S (Beckman Coulter).

KDR = KDR (Homo sapiens, UniProt P35968); assay: Kinase profile, KDR; details: 300 nM
KDR, sequence (P35968 20-1356, species assumed): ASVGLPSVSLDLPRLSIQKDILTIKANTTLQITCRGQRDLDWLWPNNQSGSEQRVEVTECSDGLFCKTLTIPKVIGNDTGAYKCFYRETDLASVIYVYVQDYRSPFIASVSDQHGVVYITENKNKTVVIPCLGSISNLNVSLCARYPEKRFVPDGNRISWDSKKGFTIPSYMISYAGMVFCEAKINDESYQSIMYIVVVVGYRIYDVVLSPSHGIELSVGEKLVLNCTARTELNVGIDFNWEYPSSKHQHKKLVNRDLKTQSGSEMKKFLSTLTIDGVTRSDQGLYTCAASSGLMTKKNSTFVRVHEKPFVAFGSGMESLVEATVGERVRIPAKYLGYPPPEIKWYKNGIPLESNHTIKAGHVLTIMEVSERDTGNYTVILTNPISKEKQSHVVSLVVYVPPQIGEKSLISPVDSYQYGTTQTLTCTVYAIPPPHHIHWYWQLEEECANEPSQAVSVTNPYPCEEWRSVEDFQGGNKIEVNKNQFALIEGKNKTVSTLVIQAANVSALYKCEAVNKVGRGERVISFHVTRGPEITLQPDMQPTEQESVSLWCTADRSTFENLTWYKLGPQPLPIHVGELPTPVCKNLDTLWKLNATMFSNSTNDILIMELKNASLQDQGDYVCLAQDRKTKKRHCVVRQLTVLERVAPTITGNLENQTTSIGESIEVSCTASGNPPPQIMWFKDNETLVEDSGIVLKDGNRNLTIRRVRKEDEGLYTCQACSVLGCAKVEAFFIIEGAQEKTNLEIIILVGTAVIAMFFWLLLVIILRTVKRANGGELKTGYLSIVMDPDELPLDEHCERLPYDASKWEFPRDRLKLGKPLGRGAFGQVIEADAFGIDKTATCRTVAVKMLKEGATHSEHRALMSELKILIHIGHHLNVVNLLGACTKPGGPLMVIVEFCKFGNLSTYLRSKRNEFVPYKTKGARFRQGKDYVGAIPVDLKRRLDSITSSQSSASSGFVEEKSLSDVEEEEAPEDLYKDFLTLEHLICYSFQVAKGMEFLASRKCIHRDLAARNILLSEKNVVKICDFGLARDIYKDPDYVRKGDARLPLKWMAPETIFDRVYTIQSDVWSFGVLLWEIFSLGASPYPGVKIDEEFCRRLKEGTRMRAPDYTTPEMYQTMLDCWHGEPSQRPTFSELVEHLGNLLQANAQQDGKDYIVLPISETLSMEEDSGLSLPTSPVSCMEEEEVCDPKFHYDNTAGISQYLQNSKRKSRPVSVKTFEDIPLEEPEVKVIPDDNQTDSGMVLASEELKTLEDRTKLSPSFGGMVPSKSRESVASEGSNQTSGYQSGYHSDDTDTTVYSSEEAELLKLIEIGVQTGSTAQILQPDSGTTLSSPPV

[6] = Egg-PAMPA permeability assay; assay type: in vitro ADME; details: incubation 4 h
Description: as §5, §6

[7] = system: panel of 18 diversified kinases; assay: Kinase profile against a panel of 18 kinases; details: 300 nM; including highly homologous kinases RON and Axl
OE33 cells = assay: Cell proliferation assay (CCK-8); assay type: cell-based; details: Homo sapiens, 72 h
Description: as §2, §3

EBC-1 cells [8] = assay: Cell proliferation assay (CCK-8); assay type: cell-based; details: Homo sapiens, 72 h
Description: as §2, §3

SBC-5 cells = assay: Cell proliferation assay (CCK-8); assay type: cell-based; details: Homo sapiens, 72 h
Description: as §2, §3

Hs746T cells = assay: Cell proliferation assay (CCK-8); assay type: cell-based; details: Homo sapiens, 72 h
Description: as §2, §3

U87MG cells = assay: Cell proliferation assay (CCK-8); assay type: cell-based; details: Homo sapiens, U-87 MG, 72 h
Description: as §2, §3

WI-38 cells = assay: Antiproliferative inhibition, normal fibroblasts; assay type: cell-based; details: Homo sapiens
[9] = Liver microsomal stability assay; assay type: in vitro ADME, SD rat; details: RLM
Description: as §5, §6

c-Met = c-Met (Homo sapiens, UniProt P08581); assay: In vitro enzymatic assay (mobility shift assay, ATP at Km)
c-Met, sequence (P08581 956-1390 limits assumed): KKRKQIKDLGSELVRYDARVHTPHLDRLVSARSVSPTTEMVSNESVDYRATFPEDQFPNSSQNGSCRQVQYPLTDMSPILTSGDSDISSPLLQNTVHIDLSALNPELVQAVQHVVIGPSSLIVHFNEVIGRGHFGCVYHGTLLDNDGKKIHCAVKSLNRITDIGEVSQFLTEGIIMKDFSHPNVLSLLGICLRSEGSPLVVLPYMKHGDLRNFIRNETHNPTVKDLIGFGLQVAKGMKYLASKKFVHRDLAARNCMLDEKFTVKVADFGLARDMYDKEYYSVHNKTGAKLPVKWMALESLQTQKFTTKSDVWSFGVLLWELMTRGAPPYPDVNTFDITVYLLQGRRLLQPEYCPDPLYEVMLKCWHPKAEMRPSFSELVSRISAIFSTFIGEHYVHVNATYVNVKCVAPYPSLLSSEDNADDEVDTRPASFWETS
Description: The compound and enzyme solution were added to the assay plate and incubate at room temperature for 10 min. Then the peptide solution was added, incubate at 28 °C for specified period of time, and subsequently added the stop buffer. Data was collected on Calliper, and IC50 values were calculated from the inhibition curves.

CYP3A4 = CYP3A4 (Homo sapiens, UniProt P08684); assay: CYP450 inhibition assay; assay type: in vitro ADME
CYP3A4, sequence (P08684 whole entry): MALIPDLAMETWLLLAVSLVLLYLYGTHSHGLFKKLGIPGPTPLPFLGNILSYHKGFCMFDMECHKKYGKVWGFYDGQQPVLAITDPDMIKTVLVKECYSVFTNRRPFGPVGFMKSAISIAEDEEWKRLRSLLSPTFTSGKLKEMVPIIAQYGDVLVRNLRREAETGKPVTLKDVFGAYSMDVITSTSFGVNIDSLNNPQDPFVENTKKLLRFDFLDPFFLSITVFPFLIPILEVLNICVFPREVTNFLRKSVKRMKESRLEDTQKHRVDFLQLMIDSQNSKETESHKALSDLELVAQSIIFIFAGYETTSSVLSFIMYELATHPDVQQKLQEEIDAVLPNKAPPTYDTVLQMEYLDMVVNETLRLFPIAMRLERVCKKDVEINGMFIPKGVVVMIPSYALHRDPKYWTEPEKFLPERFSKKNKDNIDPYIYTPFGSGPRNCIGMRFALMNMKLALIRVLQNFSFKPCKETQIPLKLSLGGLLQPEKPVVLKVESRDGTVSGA
Description: as §5, §6

CYP1A2 = biological target: T1, CYP1A2 (Homo sapiens, UniProt P05177); assay: CYP450 inhibition assay; assay type: in vitro ADME
T1 sequence (P05177 1-516): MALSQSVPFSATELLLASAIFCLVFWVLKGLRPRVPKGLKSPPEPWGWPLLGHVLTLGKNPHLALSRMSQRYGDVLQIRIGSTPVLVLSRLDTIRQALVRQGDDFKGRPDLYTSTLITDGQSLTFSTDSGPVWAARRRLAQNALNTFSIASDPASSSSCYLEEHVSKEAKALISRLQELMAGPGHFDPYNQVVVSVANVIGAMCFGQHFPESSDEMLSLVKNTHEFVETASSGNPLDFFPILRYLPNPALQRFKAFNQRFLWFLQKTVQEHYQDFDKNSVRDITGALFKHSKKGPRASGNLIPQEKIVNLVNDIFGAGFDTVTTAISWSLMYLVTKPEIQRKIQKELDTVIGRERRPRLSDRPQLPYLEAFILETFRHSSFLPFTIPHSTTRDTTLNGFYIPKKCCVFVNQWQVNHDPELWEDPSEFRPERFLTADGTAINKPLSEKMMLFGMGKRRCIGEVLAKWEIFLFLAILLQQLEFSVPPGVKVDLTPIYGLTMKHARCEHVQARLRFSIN
Description: as §5, §6

CYP2C19 = CYP2C19 (Homo sapiens, UniProt P33261); assay: CYP450 inhibition assay; assay type: in vitro ADME
CYP2C19, sequence (P33261 whole entry): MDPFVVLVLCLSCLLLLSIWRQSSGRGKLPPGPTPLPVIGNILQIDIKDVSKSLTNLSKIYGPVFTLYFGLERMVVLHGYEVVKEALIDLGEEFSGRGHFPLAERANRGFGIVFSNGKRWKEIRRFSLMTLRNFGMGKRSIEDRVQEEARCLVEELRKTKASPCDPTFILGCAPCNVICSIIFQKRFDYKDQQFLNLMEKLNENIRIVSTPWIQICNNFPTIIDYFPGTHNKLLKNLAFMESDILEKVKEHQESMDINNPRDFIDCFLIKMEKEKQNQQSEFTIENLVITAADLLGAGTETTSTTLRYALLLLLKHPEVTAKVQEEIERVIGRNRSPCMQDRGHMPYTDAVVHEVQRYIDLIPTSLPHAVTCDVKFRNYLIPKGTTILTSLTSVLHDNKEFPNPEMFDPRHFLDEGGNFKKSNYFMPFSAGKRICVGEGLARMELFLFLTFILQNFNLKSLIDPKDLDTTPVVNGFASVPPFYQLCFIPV
Description: as §5, §6

CYP2C9 = CYP2C9 (Homo sapiens, UniProt P11712); assay: CYP450 inhibition assay; assay type: in vitro ADME
CYP2C9, sequence (P11712 whole entry): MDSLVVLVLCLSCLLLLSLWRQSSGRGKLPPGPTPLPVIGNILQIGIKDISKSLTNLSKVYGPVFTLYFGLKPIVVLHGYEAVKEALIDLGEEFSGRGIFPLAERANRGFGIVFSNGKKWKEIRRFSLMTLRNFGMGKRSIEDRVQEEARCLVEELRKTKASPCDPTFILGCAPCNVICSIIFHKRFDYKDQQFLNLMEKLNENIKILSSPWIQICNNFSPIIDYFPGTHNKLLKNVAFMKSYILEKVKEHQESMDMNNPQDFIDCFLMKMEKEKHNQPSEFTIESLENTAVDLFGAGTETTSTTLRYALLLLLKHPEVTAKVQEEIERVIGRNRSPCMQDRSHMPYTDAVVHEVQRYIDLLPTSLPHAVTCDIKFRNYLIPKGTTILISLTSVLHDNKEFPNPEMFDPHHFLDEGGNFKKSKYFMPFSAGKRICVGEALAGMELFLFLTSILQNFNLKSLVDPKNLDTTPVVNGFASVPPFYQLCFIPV
Description: as §5, §6

CYP2D6 = CYP2D6 (Homo sapiens, UniProt P10635); assay: CYP450 inhibition assay; assay type: in vitro ADME
CYP2D6, sequence (P10635 whole entry): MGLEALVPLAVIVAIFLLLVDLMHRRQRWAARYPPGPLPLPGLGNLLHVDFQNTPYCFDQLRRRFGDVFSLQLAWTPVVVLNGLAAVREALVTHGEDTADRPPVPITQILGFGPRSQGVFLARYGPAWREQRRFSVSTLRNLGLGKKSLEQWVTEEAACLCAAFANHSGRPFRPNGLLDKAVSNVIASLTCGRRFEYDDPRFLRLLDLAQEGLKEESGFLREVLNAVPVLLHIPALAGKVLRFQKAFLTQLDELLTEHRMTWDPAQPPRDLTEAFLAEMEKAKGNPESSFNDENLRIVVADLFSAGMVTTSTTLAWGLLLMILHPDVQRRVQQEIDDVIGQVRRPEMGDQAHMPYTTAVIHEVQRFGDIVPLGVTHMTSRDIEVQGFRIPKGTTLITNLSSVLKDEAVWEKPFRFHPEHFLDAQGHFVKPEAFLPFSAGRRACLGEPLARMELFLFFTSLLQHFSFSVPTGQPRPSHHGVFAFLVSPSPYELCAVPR
Description: as §5, §6

In vivo pharmacokinetics = assay: In vivo pharmacokinetics; design: species or system SD rats
Description: as §5
PK parameters of LAH-1 was determined in SD rats (male, n = 3 per group) weighing (200–240 g), which were obtained from SpePharm (Beijing) Biotechnology Co., Ltd. Briefly, rats were fasted overnight before dosing, LAH-1 was given as a solution in 10% DMSO with 90% Saline for intravenously (5 mg/kg) and 0.1% PEG400 in 0.5% CMC-Na in water for PO (20 mg/kg). Each rat received 2 or 10 ml of the dosing solution/kg of body weight by intravenous injection and by gavage, respectively. Blood sample was collected at 0.033 (iv only), 0.083, 0.25, 0.5,1, 2, 4, 6, 8, 12 and 24 h after dosing and stored in ice (0–4 °C). Plasma was separated by centrifugation within 15 min post sampling. Levels of LAH-1 in blood were determined by 6500+ Triple Quad LC-MS/MS System (AB SCIEX LLC, CA, USA). The PK parameters were calculated with WinNonlin software using noncompartmental analysis.

NCI-H441 cells [10] = assay: HGF-induced cell migration (transwell); assay type: cell-based; details: HGF 100 ng/mL, 28 h
Description: as §1, §4

[11] = Sprague-Dawley, rat, plasma, iv, 5 mg/kg, male SD rats
[12] = Sprague-Dawley, rat, plasma, po, 20 mg/kg, male SD rats

IC50 (HT-1080 cells; Homo sapiens, HT-1080, 72 h, CCK-8, c-Met non-addicted cell line): > 100 µM | Remaining (T = 60min) [4]: 88.7% | half-life ([4]; human, liver microsomes): > 2.08 h | microsomal CLint ([4]; human, liver microsomes, read-out: CL int): < 8.6 µL/min/mg | inhibition on KDR (KDR): showed inhibition | Permeability ([6]; 10 μM): Moderate | Papp at 4 h, 10 μM ([6]; read-out: Mean Pe): 0.34 ×10⁻⁶ cm/s | selectivity over the other 16 kinases [7]: great selectivity | IC50 (U87MG cells): 15.7 µM | Remaining (T = 60min) [9]: 81.2% | half-life ([9]; Sprague-Dawley, rat, liver microsomes): > 2.08 h | microsomal CLint ([9]; Sprague-Dawley, rat, liver microsomes, read-out: CL int): < 8.6 µL/min/mg | IC50 (c-Met): 0.049 µM | inhibition at 10 µM (CYP3A4): 32.2% | inhibition at 10 µM (CYP1A2): 12.8% | inhibition at 10 µM (CYP2C19): 15.6% | inhibition at 10 µM (CYP2C9): 50.7% | inhibition at 10 µM (CYP2D6): 21.5% | AUC(0-inf) (In vivo pharmacokinetics; [11]): 16800 ng·h/mL | Cmax (In vivo pharmacokinetics; [11]): 14900 ng/mL | clearance (In vivo pharmacokinetics; [11]): 19.2 mL/min/kg | half-life (In vivo pharmacokinetics; [11]): 1.6 h | bioavailability (In vivo pharmacokinetics; Sprague-Dawley, rat, plasma, po 20 mg/kg vs iv 5 mg/kg, male SD rats, read-out: F% (oral bioavailability)): 12.2% | AUC(0-inf) (In vivo pharmacokinetics; [12]): 8210 ng·h/mL | Cmax (In vivo pharmacokinetics; [12]): 4460 ng/mL | Tmax (In vivo pharmacokinetics; [12]): 0.33 h | half-life (In vivo pharmacokinetics; [12]): 2.2 h | plasma clearance (in words) (In vivo pharmacokinetics; iv, 5 mg/kg, SD rats): moderate plasma clearance
Structure (SMILES): Cc1cc(=O)n(-c2ccc(F)cc2)nc1C(=O)Nc1ccc(Oc2ccnc(NC(=O)N3CC(O)C3)c2)c(F)c1 [LAH-1, N-(3-fluoro-4-((2-(3-hydroxyazetidine-1-carboxamido)pyridin-4-yl)oxy)phenyl)-1-(4-fluorophenyl)-4-methyl-6-oxo-1,6-dihydropyridazine-3-carboxamide]
colony formation (EBC-1 cells [1]): significantly inhibited | phosphorylation level of c-Met, Akt, and Erk 1/2 [2]: dose-dependent decrease | effect on HT-1080 (in words) (HT-1080 cells; cell line with low expression or activation of c-Met): minimal effect | invasion of HGF-induced NCI-H441 cells (NCI-H441 cells [3]): dose dependent suppressed | early apoptosis (EBC-1 cells [5]): 16.8% | IC50 (OE33 cells): 4.28 µM | IC50 (EBC-1 cells [8]): 1.15 µM | IC50 (SBC-5 cells): 16.1 µM | IC50 (Hs746T cells): 2.35 µM | inhibition at 100 µM (WI-38 cells): 34.5% | migration of HGF-induced NCI-H441 cells (NCI-H441 cells [10]): dose dependent suppressed

Reference: publication PMC11721924, “Discovery of LAH-1 as potent c-Met inhibitor for the treatment of non-small cell lung cancer” (Journal of Enzyme Inhibition and Medicinal Chemistry, 2023)
